Read-outs that look alike come from different tables or passages of the source.

Holding throughout (assay type): cell-based
For assay [1], the system named is human adenocarcinoma HT1080. In words: Anti-tumor activity, cell growth inhibition by CellTiter Blue Assay, HT1080. Particulars: read-out: IC50 HT1080. The protocol: (§1) Three human tumor cells were used in this investigation, and they were human H460 NSCLC, human melanoma A2058 and human […] HT1080 cell lines. Cells were originally obtained from American Type Cell Culture (ATCC) and have been used for experiments at passages below 30. All tumor cells were maintained at 37° C. in a humidified 5% CO2 atmosphere in T75 tissue culture flasks containing 25 mL of Roswell Park Memorial Institute (RPMI) 1640, with 10% fetal bovine serum (FBS) and 2 mM L-glutamine. The tumor cells were split at a ratio of 1:10 every 4-5 days by trypsinization and resuspended in fresh medium in a new flask. Cells were harvested for experiments at 70-90% confluency.
(§2) The culture media used for all cell lines in this study was Roswell Park Memorial Institute (RPMI) 1640, with 10% fetal bovine serum (FBS), 2 mM L-glutamine, 100 IU/mL penicillin and 100 μg/ml streptomycin. The test compounds used were generally prepared at a concentration higher than 20 mM and tested at 1 mM in cultured media for precipitation, 1 mM is the highest tested concentration of the test compounds.
(§3) The anti-tumor activities of the test compounds were assessed by exposing the tumor cells to various concentrations of test compounds (or vehicle) or not treated with the test compounds or vehicle. The concentration ranges of the test compounds evaluated in this study were 0-1 mM. The duration of treatment of the tumor cells was 48 hours. Subsequent to treatment with the test articles, the number of viable tumor cells was determined, and the concentrations of the test agents that induced 50% of cell growth inhibition (IC50) were derived and compared.
(§4) Cell Seeding for Experiments: To cells grown to 70-90% confluency, medium was removed and the cell monolayers were washed briefly by adding 5 mL of phosphate buffer saline (PBS) followed by aspiration. Trypsin-ethylenediaminetetraacetic acid (EDTA) (4 mL) was added to each, flask, and the flask was placed in the tissue culture incubator for 5 minutes. Serum-containing medium (10 mL) was added to halt the enzymatic reactions, and cells were disaggregated, by repeated resuspension with serological pipet. The cell-containing medium (20 μL) was added to 20 μL of 0.4% Trypan Blue solution, mixed, and 10 μL of this cell-containing mixture was placed in a chamber of a hemocytometer. The number of viable cells was determined by counting the number of viable cells (cells that excluded trypan blue) in the 4 corner squares of the hemocytometer chamber at 100× magnification. The volume of cells needed was determined by the following formula:
(§5) The number of cells targeted for the study was 4×10^3 per well in 100 μL of medium. The actual number of cells were counted and seeded in the wells of a 96 well-plate. The cells were then incubated for ˜24 hrs before they were used for testing of anti-tumor activities of the test compounds and vehicle. Cell monolayer was confluent or subconfluent for some cell lines at the day of the experiment.
(§6) Treatment with Test Compounds and Vehicle: On the day of testing, 5 μL of a specific concentration of the test compounds (or vehicle) were added to the wells. After exposure to the test articles (or vehicle) for 48 hours, the number of viable cells in the wells was determined (see next section), and the percent of cells relative to no treatment was calculated.
(§7) Determination of the Number of Viable Cells by the CellTiter Blue Assay: The number of viable cells was determined using the CellTiter Blue Assay in this study. Specifically, reagents were allowed to come to room temperature according to instructions from Protoega, Inc. (Madison, Wis.). CellTiter Blue reagent was added with the 12-channel Eppendorf pipettor, 20 μL per well. The cells were then incubated at 37° C. for 1-4 hrs in cell culture incubator. Fluorescence intensity, which is proportional to the quantity of viable cells, was read at 530/590 nm using FLUOstar optima fluorescence plate reader (BMG technologies, Germany). […]

For another assay, the system named is human H460 NSCLC. Kind of assay: Anti-tumor activity, cell growth inhibition by CellTiter Blue Assay, H460. The note with it: read-out: IC50 H460 (NSCLC). How it is done: as §1, §2, §3, §4, §5, §6, §7
For another assay, the system named is human melanoma A2058. Kind of assay: Anti-tumor activity, cell growth inhibition by CellTiter Blue Assay, A2058. Particulars: read-out: IC50 A2058 (melanoma). The protocol:
as §1, §2, §3, §4, §5, §6, §7

Where [2] appears, read: Homo sapiens, HT-1080, 48 h, HT1080 cells, 48 hours treatment, 0-1 mM, viable cells by CellTiter Blue.
[3] abbreviates: Homo sapiens, NCI-H460, 48 h, H460 cells, 48 hours treatment, 0-1 mM, viable cells by CellTiter Blue.
Where [4] appears, read: Homo sapiens, A2058, 48 h, A2058 cells, 48 hours treatment, 0-1 mM, viable cells by CellTiter Blue.
[5] abbreviates: HT1080 cells, 48 hours treatment, 0-1 mM, viable cells by CellTiter Blue.
[6] abbreviates: H460 cells, 48 hours treatment, 0-1 mM, viable cells by CellTiter Blue.
Setting [7] is: A2058 cells, 48 hours treatment, 0-1 mM, viable cells by CellTiter Blue.

On to `O=C(O)CCCCC(CCSc1ccnc2cc(Cl)ccc12)Sc1ccnc2cc(Cl)ccc12` (stereo not drawn) [A], for which the values for the IC50 (in assay [1] (setting [2]); in the assay with human H460 NSCLC (setting [3]); with human melanoma A2058 (setting [4])) were 80 ± 8 µM, 127 ± 11 µM and 183 ± 3 µM, respectively.

As to `CCC(S)(CCCCC(=O)O)CC(S)c1ccccc1` (stereo not drawn) [Compound MM, 6-ethyl-8-phenyl-6,8-bismercaptooctanoic acid], the IC50 in assay [1] (setting [2]) was 421 ± 53 µM; with human H460 NSCLC (setting [3]) it was 449 ± 1 µM; in the assay with human melanoma A2058 (setting [4]), 346 ± 20 µM.

On to `O=C(O)CCCCC(CCSc1ccnc2ccccc12)Sc1ccnc2ccccc12` (stereo not drawn) [F], for which the IC50 is 68 ± 20 µM in assay [1] (Homo sapiens, HT-1080, 48 h); 70 ± 13 µM in the assay with human H460 NSCLC (Homo sapiens, NCI-H460, 48 h); 51 ± 4 µM in the assay on human melanoma A2058 (Homo sapiens, A2058, 48 h).

Take `CCSC(CCS)CCCCC(=O)O` (stereo not drawn) [H, 6-ethylmercapto-8-mercaptooctanoic acid]: the IC50 in assay [1] (setting [2]) turned out to be 270 ± 4 µM; in the assay with human H460 NSCLC (setting [3]), 282 ± 20 µM; in the assay on human melanoma A2058 (setting [4]) it was 238 ± 2 µM.

Take `O=C(O)CCCCC(CCSSCc1ccccc1)SSCc1ccccc1` (stereo not drawn) [JJ]: the IC50 in assay [1] (setting [5]) is 133 ± 2 µM; with human H460 NSCLC (setting [6]), 318 ± 20 µM; in the assay with human melanoma A2058 (setting [7]), 206 ± 55 µM.

For the compound `O=C(O)CCCCC(CCSSCc1ccccc1)SSCc1ccccc1` (stereo not drawn) [KK], the 50% inhibitory concentration (IC50) in assay [1] (setting [5]) is 212 ± 52 µM; in the assay with human H460 NSCLC (setting [6]) it was 409 ± 69 µM; with human melanoma A2058 (setting [7]), 483 ± 180 µM.

As to `O=C(O)CCCCC1CCSC(c2ccncc2)S1` (stereo not drawn) [Q], the 50% inhibitory concentration (IC50) in the assay on human melanoma A2058 (Homo sapiens, A2058, 48 h) worked out at 717 ± 11 µM.

In the case of `O=C(O)CCCCC(CCSCCc1ccccc1)SCCc1ccccc1` (stereo not drawn) [W], the values for the IC50 in the assay with human H460 NSCLC (setting [3]) and in the assay with human melanoma A2058 (setting [4]) were 167 ± 42 µM and 125 ± 3 µM, respectively.

`O=C(O)CCCCC(CCSCc1c(F)c(F)c(F)c(F)c1F)SCc1c(F)c(F)c(F)c(F)c1F` (stereo not drawn) [X]: the IC50 in assay [1] (setting [2]) came out at 60 ± 18 µM; in the assay with human H460 NSCLC (setting [3]), 64 ± 4 µM; with human melanoma A2058 (setting [4]), 59 ± 4 µM.

The values are drawn from US9150509B2, “Lipoic acid derivatives” (Cornerstone Pharmaceuticals, Inc., priority 2007, dated 2015).
